Data reported in ChEMBL document CHEMBL5223092, “Antibacterial activities of plant-derived xanthones” (RSC Med Chem, 2022).
Converted amounts (≈) assume the structure as drawn.

Tests used:
Staphylococcus aureus [1] = assay: Antibacterial activity against methicillin resistant Staphylococcus aureus; assay type: functional
Staphylococcus aureus [2] = assay: Antibacterial activity against Staphylococcus aureus; assay type: functional
Staphylococcus aureus [3] = assay: Antibacterial activity against methicillin resistant Staphylococcus aureus by liquid dilution method; assay type: functional
Staphylococcus aureus [4] = assay: Antibacterial activity against Staphylococcus aureus NIHJ 209p; assay type: functional
Escherichia coli [5] = assay: Antibacterial activity against Escherichia coli NIHJ K 12; assay type: functional
Micrococcus luteus [6] = assay: Antibacterial activity against Micrococcus luteus TISTR 1466 incubated for 16 to 18 hrs by Mueller-Hinton broth based two-fold serial dilution method; assay type: functional; conditions: time 16-18 hrs
Bacillus cereus [7] = assay: Antibacterial activity against Bacillus cereus TISTR 688 incubated for 16 to 18 hrs by Mueller-Hinton broth based two-fold serial dilution method; assay type: functional; conditions: time 16-18 hrs
Escherichia coli [8] = assay: Antibacterial activity against Escherichia coli TISTR 780 incubated for 16 to 18 hrs by Mueller-Hinton broth based two-fold serial dilution method; assay type: functional; conditions: time 16-18 hrs
Salmonella typhimurium [9] = assay: Antibacterial activity against Salmonella typhimurium TISTR 292 incubated for 16 to 18 hrs by Mueller-Hinton broth based two-fold serial dilution method; assay type: functional, Salmonella enterica subsp. enterica serovar Typhimurium; conditions: Salmonella enterica, time 16-18 hrs
Pseudomonas aeruginosa [10] = assay: Antibacterial activity against Pseudomonas aeruginosa TISTR 781 incubated for 16 to 18 hrs by Mueller-Hinton broth based two-fold serial dilution method; assay type: functional; conditions: time 16-18 hrs
[11] = system: Staphylococcus epidermidis; assay: Antibacterial activity against Staphylococcus epidermidis ATCC 12228 incubated for 16 to 18 hrs by Mueller-Hinton broth based two-fold serial dilution method
Bacillus subtilis [12] = assay: Antibacterial activity against Bacillus subtilis incubated for 8 to 12 hrs by Alamar blue reagent based microdilution broth method; assay type: functional; conditions: time 8-12 hrs
Staphylococcus aureus [13] = assay: Antibacterial activity against Staphylococcus aureus TISTR 517 incubated for 8 to 12 hrs by Alamar blue reagent based microdilution broth method; assay type: functional; conditions: time 8-12 hrs
Pseudomonas aeruginosa [14] = assay: Antibacterial activity against Pseudomonas aeruginosa incubated for 8 to 12 hrs by Alamar blue reagent based microdilution broth method; assay type: functional; conditions: time 8-12 hrs
Enterococcus faecalis [15] = assay: Antibacterial activity against Streptococcus faecalis incubated for 8 to 12 hrs by Alamar blue reagent based microdilution broth method; assay type: functional; conditions: time 8-12 hrs
Salmonella typhi = assay: Antibacterial activity against Salmonella typhi incubated for 8 to 12 hrs by Alamar blue reagent based microdilution broth method; assay type: functional, Salmonella enterica subsp. enterica serovar Typhi; conditions: Salmonella enterica; time 8-12 hrs
[16] = Lipophilicity, logP of the compound; assay type: physicochemical; conditions: octanol/water
Staphylococcus aureus [17] = assay: Antibacterial activity against Staphylococcus aureus TISTR 1466 by Mueller-Hinton broth based two-fold serial dilution method; assay type: functional
Staphylococcus aureus [18] = assay: Antibacterial activity against methicillin resistant Staphylococcus aureus SK1 by Mueller-Hinton broth based two-fold serial dilution method; assay type: functional
Micrococcus luteus [19] = assay: Antibacterial activity against Micrococcus luteus; assay type: functional
Listeria monocytogenes = assay: Antibacterial activity against Listeria monocytogenes DMST 17303 by Mueller-Hinton broth based two-fold serial dilution method; assay type: functional
Staphylococcus aureus [20] = assay: Antibacterial activity against Staphylococcus aureus TISTR 517 by Mueller-Hinton broth based two-fold serial dilution method; assay type: functional
[21] = system: Staphylococcus epidermidis; assay: Antibacterial activity against Staphylococcus epidermidis DMST 15505 by Mueller-Hinton broth based two-fold serial dilution method; assay type: functional
Streptococcus pyogenes = assay: Antibacterial activity against Streptococcus pyogenes DMST 17020 by Mueller-Hinton broth based two-fold serial dilution method; assay type: functional
Escherichia coli [22] = assay: Antibacterial activity against Escherichia coli ATCC 25922 by Mueller-Hinton broth based two-fold serial dilution method; assay type: functional
Staphylococcus aureus [23] = assay: Antibacterial activity against methicillin resistant Staphylococcus aureus SK1 incubated for 16 to 18 hrs by agar microdilution method; assay type: functional; conditions: time 16-18 hrs
Bacillus cereus [24] = assay: Antibacterial activity against Bacillus cereus; assay type: functional
Bacillus subtilis [25] = assay: Antibacterial activity against Bacillus subtilis; assay type: functional
Bacillus subtilis [26] = assay: Antibacterial activity against Bacillus subtilis TISTR 008 by Mueller-Hinton broth based two-fold serial dilution method; assay type: functional
Micrococcus luteus [27] = assay: Antibacterial activity against Micrococcus luteus TISTR 884 by Mueller-Hinton broth based two-fold serial dilution method; assay type: functional
[28] = system: Staphylococcus epidermidis; assay: Antibacterial activity against Staphylococcus epidermis ATCC 12228 by Mueller-Hinton broth based two-fold serial dilution method; assay type: functional
Bacillus cereus [29] = assay: Antibacterial activity against Bacillus cereus TISTR 688 by Mueller-Hinton broth based two-fold serial dilution method; assay type: functional
Salmonella typhimurium [30] = assay: Antibacterial activity against Salmonella typhimurium TISTR 292 by Mueller-Hinton broth based two-fold serial dilution method; assay type: functional, Salmonella enterica subsp. enterica serovar Typhimurium; conditions: Salmonella enterica
Vibrio vulnificus = assay: Antibacterial activity against Vibrio vulnificus MCCC E1758; assay type: functional
Vibrio rotiferianus = assay: Antibacterial activity against Vibrio rotiferianus MCCC E385; assay type: functional
Vibrio campbellii = assay: Antibacterial activity against Vibrio campbellii MCCC E333; assay type: functional
Bacillus subtilis [31] = assay: Antibacterial activity against Bacillus subtilis PCI 219 incubated for 20 hrs by Mueller-Hinton broth based agar based dilution method; assay type: functional
Staphylococcus aureus [32] = assay: Antibacterial activity against methicillin resistant Staphylococcus aureus incubated for 20 hrs by Mueller-Hinton broth based agar based dilution method; assay type: functional
Micrococcus luteus [33] = assay: Antibacterial activity against Micrococcus luteus ATCC 9341 incubated for 20 hrs by Mueller-Hinton broth based agar based dilution method; assay type: functional
Enterococcus faecalis [34] = assay: Antibacterial activity against Enterococcus faecalis JCM 7783 incubated for 20 hrs by Mueller-Hinton broth based agar based dilution method; assay type: functional
Enterococcus faecalis [35] = assay: Antibacterial activity against Enterococcus faecalis JU 1856 incubated for 20 hrs by Mueller-Hinton broth based agar based dilution method; assay type: functional
Enterococcus faecalis [36] = assay: Antibacterial activity against Enterococcus faecalis JU 1782 incubated for 20 hrs by Mueller-Hinton broth based agar based dilution method; assay type: functional
Staphylococcus aureus [37] = assay: Antibacterial activity against methicillin sensitive Staphylococcus aureus JCM 2874 incubated for 20 hrs by Mueller-Hinton broth based agar based dilution method; assay type: functional
[38] = system: Staphylococcus epidermidis; assay: Antibacterial activity against Staphylococcus epidermidis; assay type: functional
Escherichia coli [39] = assay: Antibacterial activity against Escherichia coli; assay type: functional
Pseudomonas aeruginosa [40] = assay: Antibacterial activity against Pseudomonas aeruginosa; assay type: functional
Vibrio harveyi [41] = assay: Antibacterial activity against Vibrio harveyi SZ-1 incubated for 24 hrs by oxford cup method; assay type: functional
Vibrio harveyi [42] = assay: Antibacterial activity against Vibrio harveyi 1.8690 incubated for 24 hrs by oxford cup method; assay type: functional

C=CC(C)(C)c1cc(O)c2oc3c(O)cccc3c(=O)c2c1O
MIC (Staphylococcus aureus [1]): 3.13 µg/mL (≈ 10 µM)
MIC (Staphylococcus aureus [2]): 6.25 µg/mL (≈ 20 µM)

C=CC(C)(C)c1cc(O)c2oc3c(O)c(O)ccc3c(=O)c2c1O
MIC (Staphylococcus aureus [3]): 25 µg/mL (≈ 76.1 µM)
MIC (Staphylococcus aureus [4]): 12.5 µg/mL (≈ 38.1 µM)
MIC (Escherichia coli [5]): 25 µg/mL (≈ 76.1 µM)

CC1(C)CC(O)Oc2cc(O)c3c(=O)c4cccc(O)c4oc3c21 (stereo not given)
MIC (Micrococcus luteus [6]): 16 µg/mL (≈ 48.7 µM)
MIC (Bacillus cereus [7]): 32 µg/mL (≈ 97.5 µM)
MIC (Escherichia coli [8]): 32 µg/mL (≈ 97.5 µM)
MIC (Salmonella typhimurium [9]): 32 µg/mL (≈ 97.5 µM)
MIC (Pseudomonas aeruginosa [10]): 16 µg/mL (≈ 48.7 µM)
MIC [11]: 16 µg/mL (≈ 48.7 µM)

CC(C)=CCc1c2c(c(O)c3c(=O)c4ccc(O)c(O)c4oc13)C=CC(C)(C)O2
MIC (Bacillus subtilis [12]): 1.1 µg/mL (≈ 2.79 µM)
MIC (Staphylococcus aureus [13]): 1.1 µg/mL (≈ 2.79 µM)
MIC (Pseudomonas aeruginosa [14]): 9.3 µg/mL (≈ 23.6 µM)
MIC (Enterococcus faecalis [15]): 1.1 µg/mL (≈ 2.79 µM)
MIC (Salmonella typhi): 1.1 µg/mL (≈ 2.79 µM)

CC(C)=CCC/C(C)=C/Cc1c2c(c3oc4c(O)cccc4c(=O)c3c1O)C=CC(C)(C)O2
MIC (Bacillus subtilis [12]): 4.6 µg/mL (≈ 10.3 µM)
MIC (Staphylococcus aureus [13]): 2.3 µg/mL (≈ 5.15 µM)
MIC (Pseudomonas aeruginosa [14]): > 50 µg/mL
MIC (Enterococcus faecalis [15]): 18.7 µg/mL (≈ 41.9 µM)
MIC (Salmonella typhi): 4.6 µg/mL (≈ 10.3 µM)

COc1cc2c(=O)c3c(O)cccc3oc2c(O)c1OC
MIC (Bacillus cereus [7]): 16 µg/mL (≈ 55.5 µM)
logP [16]: 2.09
MIC [11]: 16 µg/mL (≈ 55.5 µM)

CC(C)=CCc1c(O)cc2oc3c(c(=O)c2c1O)C[C@H](CC=C(C)C)C(=O)[C@@]3(O)CC=C(C)C
MIC (Staphylococcus aureus [17]): 2 µg/mL (≈ 4.29 µM)
MIC (Staphylococcus aureus [18]): 2 µg/mL (≈ 4.29 µM)

COc1c(O)cc2oc3cc4c(c(O)c3c(=O)c2c1CC=C(C)C)CC(C(C)(C)O)O4 (stereo not given)
MIC (Micrococcus luteus [19]): 12.5 µg/mL (≈ 29.3 µM)
MIC (Listeria monocytogenes): 0.78 µg/mL (≈ 1.83 µM)
MIC (Staphylococcus aureus [20]): 12.5 µg/mL (≈ 29.3 µM)
MIC [21]: 25 µg/mL (≈ 58.6 µM)
MIC (Streptococcus pyogenes): 3.13 µg/mL (≈ 7.34 µM)
MIC (Escherichia coli [22]): 25 µg/mL (≈ 58.6 µM)
MIC (Staphylococcus aureus [23]): 4 µg/mL (≈ 9.38 µM)
MIC (Bacillus cereus [24]): 8 µg/mL (≈ 18.8 µM)
MIC (Bacillus subtilis [25]): 2 µg/mL (≈ 4.69 µM)

COc1cc2c(=O)c3c(O)cc(O)cc3oc2cc1O [ALLOATHYRIOL]
MIC (Salmonella typhimurium [9]): 4 µg/mL (≈ 14.6 µM)
logP [16]: 1.74

COc1c(O)cc2oc3cc(O)c(CC=C(C)C)c(O)c3c(=O)c2c1C/C=C(\C)CCC=C(C)C [COWANIN]
MIC (Staphylococcus aureus [17]): 32 µg/mL (≈ 66.9 µM)
MIC (Staphylococcus aureus [18]): 2 µg/mL (≈ 4.18 µM)
MIC (Bacillus subtilis [26]): 4 µg/mL (≈ 8.36 µM)
MIC (Micrococcus luteus [27]): 4 µg/mL (≈ 8.36 µM)
MIC [28]: 2 µg/mL (≈ 4.18 µM)
MIC (Bacillus cereus [29]): 32 µg/mL (≈ 66.9 µM)
MIC (Salmonella typhimurium [30]): 64 µg/mL (≈ 134 µM)

CC(C)=CCc1c(O)cc2oc3c(CC=C(C)C)c(O)c(O)c(CC=C(C)C)c3c(=O)c2c1O [GARCINONE E]
MIC (Staphylococcus aureus [3]): 25 µg/mL (≈ 53.8 µM)
MIC (Staphylococcus aureus [4]): 12.5 µg/mL (≈ 26.9 µM)
MIC (Escherichia coli [5]): 25 µg/mL (≈ 53.8 µM)
MIC (Vibrio vulnificus): 15.6 µg/mL (≈ 33.6 µM)
MIC (Vibrio rotiferianus): 15.6 µg/mL (≈ 33.6 µM)
MIC (Vibrio campbellii): 31.2 µg/mL (≈ 67.2 µM)

C=CC(C)(C)c1c(O)cc2oc3c(O)c4c(cc3c(=O)c2c1O)C=CC(C)(C)O4 [GERONTOXANTHONE B]
MIC (Bacillus subtilis [31]): > 25 µg/mL
MIC (Staphylococcus aureus [32]): 25 µg/mL (≈ 63.4 µM)
MIC (Micrococcus luteus [33]): 12.5 µg/mL (≈ 31.7 µM)

CC(C)=CCc1c(O)cc(O)c2c(=O)c3c(CC=C(C)C)c(O)ccc3oc12 [GERONTOXANTHONE H]
MIC (Enterococcus faecalis [34]): 1.56 µg/mL (≈ 4.1 µM)
MIC (Enterococcus faecalis [35]): 1.56 µg/mL (≈ 4.1 µM)
MIC (Enterococcus faecalis [36]): 1.56 µg/mL (≈ 4.1 µM)
MIC (Bacillus subtilis [31]): 1.56 µg/mL (≈ 4.1 µM)
MIC (Staphylococcus aureus [37]): 1.56 µg/mL (≈ 4.1 µM)
MIC (Staphylococcus aureus [32]): 1.56 µg/mL (≈ 4.1 µM)
MIC (Micrococcus luteus [33]): 1.56 µg/mL (≈ 4.1 µM)

C=CC(C)(C)c1c(O)c(CC=C(C)C)c(O)c2c(=O)c3ccc(O)c(O)c3oc12 [GERONTOXANTHONE I]
MIC (Staphylococcus aureus [1]): 3.13 µg/mL (≈ 7.9 µM)
MIC (Micrococcus luteus [19]): 6.25 µg/mL (≈ 15.8 µM)
MIC (Bacillus subtilis [12]): 2.5 µg/mL (≈ 6.31 µM)
MIC (Staphylococcus aureus [13]): 1.1 µg/mL (≈ 2.77 µM)
MIC (Pseudomonas aeruginosa [14]): > 50 µg/mL
MIC (Enterococcus faecalis [15]): 3.13 µg/mL (≈ 7.9 µM)
MIC (Salmonella typhi): 1.1 µg/mL (≈ 2.77 µM)

COc1c(O)cc2oc3cc(O)c(CC=C(C)C)c(O)c3c(=O)c2c1CC=C(C)C [MANGOSTIN]
MIC (Staphylococcus aureus [1]): 6.25 µg/mL (≈ 15.2 µM)
MIC (Staphylococcus aureus [2]): 3.13 µg/mL (≈ 7.63 µM)
MIC (Micrococcus luteus [19]): 1 µg/mL (≈ 2.44 µM)
MIC [38]: 1.56 µg/mL (≈ 3.8 µM)
MIC (Escherichia coli [39]): 12.5 µg/mL (≈ 30.5 µM)
MIC (Pseudomonas aeruginosa [40]): 12.5 µg/mL (≈ 30.5 µM)

COc1cc(O)cc2c1C(=O)c1c(O)cc(C)cc1C2=O [QUESTIN]
MIC (Vibrio harveyi [41]): < 50 µg/mL
MIC (Vibrio harveyi [42]): < 50 µg/mL

COc1c(O)cc2oc3cc(O)cc(O)c3c(=O)c2c1C/C=C(\C)CCC=C(C)C [RUBRAXANTHONE]
MIC (Staphylococcus aureus [3]): 1.25 µg/mL (≈ 3.05 µM)
MIC (Staphylococcus aureus [2]): 12 µg/mL (≈ 29.2 µM)
MIC (Bacillus subtilis [26]): 1 µg/mL (≈ 2.44 µM)
MIC (Micrococcus luteus [27]): 2 µg/mL (≈ 4.87 µM)
MIC [28]: 4 µg/mL (≈ 9.75 µM)
